Assay [1] concerns the target Adenosine A2B (ADORA2B) receptor (Homo sapiens (Human), UniProt P29275). Put plainly: ADORA2B Receptor Binding Assay. The note with it: radioligand binding, membrane stock. In a few lines:
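Radioligand competition binding on human A2B receptor membranes, 1 h at room temperature, then filtration through BSA-presoaked GF/C filters and ³H counting by scintillation. Inhibition expressed as % of high control after background subtraction.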

Assay [2] has as its target Adenosine A2a (ADORA2A) receptor (Homo sapiens (Human), UniProt P29274). Nature of the assay: ADORA2A Receptor Binding Assay. The note with it: radioligand binding, membrane stock. In a few lines:
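Test compounds incubated with A2a receptor membranes and a ³H-labelled radioligand for 2 hours at room temperature, then filtered through PEI-presoaked GF/C plates and washed. Filter-bound ³H counted by scintillation; % inhibition calculated from background-subtracted signal relative to high control.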

In patent publication US11718622B2, “Heterocyclic adenosine receptor antagonists” (Exelixis, Inc., priority 2020, dated 2023) one finds IC50 data, which are given here for 35 compounds.

Each structure is given as a SMILES string.

Adenosine A2a (ADORA2A) receptor, sequence (P29274 whole entry): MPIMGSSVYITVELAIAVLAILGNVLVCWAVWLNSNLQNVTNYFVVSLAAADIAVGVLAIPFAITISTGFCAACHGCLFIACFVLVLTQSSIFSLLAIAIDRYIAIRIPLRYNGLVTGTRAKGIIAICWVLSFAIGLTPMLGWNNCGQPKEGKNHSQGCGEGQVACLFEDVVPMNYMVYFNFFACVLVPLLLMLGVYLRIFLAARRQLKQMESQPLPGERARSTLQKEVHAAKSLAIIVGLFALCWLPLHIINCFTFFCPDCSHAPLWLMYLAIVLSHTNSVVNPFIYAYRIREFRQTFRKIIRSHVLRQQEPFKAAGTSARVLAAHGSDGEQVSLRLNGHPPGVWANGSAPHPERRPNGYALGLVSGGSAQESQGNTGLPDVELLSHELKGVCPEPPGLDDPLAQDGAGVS
Adenosine A2B (ADORA2B) receptor, sequence (P29275 whole entry): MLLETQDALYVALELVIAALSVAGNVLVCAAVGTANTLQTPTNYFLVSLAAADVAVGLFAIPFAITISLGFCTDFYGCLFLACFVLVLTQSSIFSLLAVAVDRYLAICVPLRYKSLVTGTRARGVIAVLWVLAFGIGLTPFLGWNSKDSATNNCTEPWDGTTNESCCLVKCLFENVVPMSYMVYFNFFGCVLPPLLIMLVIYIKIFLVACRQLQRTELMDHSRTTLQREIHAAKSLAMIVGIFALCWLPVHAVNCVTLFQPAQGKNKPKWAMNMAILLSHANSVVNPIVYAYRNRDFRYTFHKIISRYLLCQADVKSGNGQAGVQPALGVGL

Take `Cc1nc2c(Br)c(N)nc(-c3ccccc3)n2n1` [Compound 89, 8-bromo-2-methyl-5-phenyl-[1,2,4]triazolo[1,5-c]pyrimidin-7-amine]: the concentration for half-maximal inhibition (IC50) in assay [1] and in assay [2] was 10 to 100 nM each time.
On to `Cc1cncc(-c2nc(N)c(Cl)c3nc(C)nn23)c1` [Compound 57, 8-chloro-2-methyl-5-(5-methylpyridin-3-yl)-[1,2,4]triazolo[1,5-c]pyrimidin-7-amine], for which the IC50 in assay [1] and in assay [2] was > 1000 nM each time.
Consider `CC(C)c1cn2c(Cl)c(N)nc(-c3ccccc3)c2n1` [Compound 213, 5-chloro-8-phenyl-2-propan-2-ylimidazo[1,2-a]pyrazin-6-amine], for which the IC50 (as a rule, the concentration at which inhibition is half-maximal) is 100 to 1000 nM in assay [1] and 10 to 100 nM in assay [2].
For `CC(C)c1nc2c(-c3ccco3)nc(NC(=O)C3CC3)cn2n1` [Compound 181, N-[8-(furan-2-yl)-2-propan-2-yl-[1,2,4]triazolo[1,5-a]pyrazin-6-yl]cyclopropanecarboxamide], in that order: < 10 nM and < 10 nM.
Take `CCC(=O)Nc1cn2cc(C)nc2c(-c2ccco2)n1` [Compound 220, N-[8-(furan-2-yl)-2-methylimidazo[1,2-a]pyrazin-6-yl]propanamide]: the half-inhibitory concentration (IC50) was 10 to 100 nM in assay [1] and < 10 nM in assay [2].
The corresponding values for `CCNC(=O)Nc1cn2cc(C)nc2c(-c2ccco2)n1` [Compound 223, 1-ethyl-3-[8-(furan-2-yl)-2-methylimidazo[1,2-a]pyrazin-6-yl]urea] are 10 to 100 nM and < 10 nM.
The corresponding values for `Cc1nc2c(-c3ccccc3)nc(N)c(Br)n2n1` [Compound 172, 5-bromo-2-methyl-8-phenyl-[1,2,4]triazolo[1,5-a]pyrazin-6-amine] are < 10 nM and < 10 nM.
The corresponding values for `CC(=O)Nc1cc2nc(C)nn2c(-c2ccc(S(C)(=O)=O)cc2)n1` [Compound 101, N-[2-methyl-5-(4-methylsulfonylphenyl)-[1,2,4]triazolo[1,5-c]pyrimidin-7-yl]acetamide] are > 1000 nM and > 1000 nM.
On to `Cc1nc2c3cn[nH]c3nc(-c3ccc(C)o3)n2n1` [Compound 102, 4-methyl-7-(5-methylfuran-2-yl)-3,5,6,8,10,11-hexazatricyclo[7.3.0.0^2,6]dodeca-1(9),2,4,7,11-pentaene], for which the IC50 in assay [1] and in assay [2] was 10 to 100 nM each time.
Turning to `CC(=O)Nc1cc2nc(C3COC3)nn2c(-c2ccc(C)o2)n1` [Compound 109, N-[5-(5-methylfuran-2-yl)-2-(oxetan-3-yl)-[1,2,4]triazolo[1,5-c]pyrimidin-7-yl]acetamide], the IC50 is 10 to 100 nM in assay [1] and < 10 nM in assay [2].
For `Cc1nc2cc(N)nc(-c3ccc(S(C)(=O)=O)cc3)n2n1` [Compound 106, 2-methyl-5-(4-methylsulfonylphenyl)-[1,2,4]triazolo[1,5-c]pyrimidin-7-amine], in that order: > 1000 nM and > 1000 nM.
The corresponding values for `CC(=O)c1cccc(-c2nc(NC(=O)OC(C)(C)C)cc3nc(C)nn23)c1` [Compound 94, tert-butyl N-[5-(3-acetylphenyl)-2-methyl-[1,2,4]triazolo[1,5-c]pyrimidin-7-yl]carbamate] are > 1000 nM and > 1000 nM.
The corresponding values for `CN1CC(c2nc3cc(NC(=O)C4CC4)nc(-c4ccco4)n3n2)C1` [Compound 135, N-[5-(furan-2-yl)-2-(1-methylazetidin-3-yl)-[1,2,4]triazolo[1,5-c]pyrimidin-7-yl]cyclopropanecarboxamide] are > 1000 nM and < 10 nM.
Regarding `Cc1ccc(-c2nc(N)cn3ncnc23)o1` [Compound 166, 8-(5-methylfuran-2-yl)-[1,2,4]triazolo[1,5-a]pyrazin-6-amine], the IC50 in assay [1] and in assay [2] was 100 to 1000 nM in each case.
As for `Cc1cn2c(Br)c(N)nc(-c3ccccc3)c2n1` [Compound 203, 5-bromo-2-methyl-8-phenylimidazo[1,2-a]pyrazin-6-amine], the IC50 in assay [1] and in assay [2] was 100 to 1000 nM in each case.
On to `Cc1ccc(-c2nc3[nH]ncc3c3nc(C(C)C)nn23)o1` [Compound 121, 7-(5-methylfuran-2-yl)-4-propan-2-yl-3,5,6,8,10,11-hexazatricyclo[7.3.0.0^2,6]dodeca-1(9),2,4,7,11-pentaene], for which the results for the IC50 in assay [1] and in assay [2] were 10 to 100 nM and < 10 nM, respectively.
Turning to `Cc1ccc(-c2nc(NC(=O)C3CC3)cn3nc(C(F)(F)F)nc23)o1` [Compound 189, N-[8-(5-methylfuran-2-yl)-2-(trifluoromethyl)-[1,2,4]triazolo[1,5-a]pyrazin-6-yl]cyclopropanecarboxamide], the IC50 in assay [1] and in assay [2] was < 10 nM in each case.
In the case of `Cc1nc2cc(NC(=O)C3CC3)nc(-c3ccc(C(C)(C)C)o3)n2n1` [Compound 43, N-[5-(5-tert-butylfuran-2-yl)-2-methyl-[1,2,4]triazolo[1,5-c]pyrimidin-7-yl]cyclopropanecarboxamide], the IC50 in assay [1] is > 1000 nM; in assay [2], 10 to 100 nM.
For `Cc1ccc(-c2nc3[nH]c(C(C)(C)O)cc3c3nc(C(C)C)nn23)o1` [Compound 162, 2-[7-(5-methylfuran-2-yl)-4-propan-2-yl-3,5,6,8,10-pentazatricyclo[7.3.0.0^2,6]dodeca-1(9),2,4,7,11-pentaen-11-yl]propan-2-ol], in that order: 10 to 100 nM and < 10 nM.
The corresponding values for `O=C(Nc1cc2nc(CF)nn2c(-c2ccco2)n1)C1CC1` [Compound 149, N-[2-(fluoromethyl)-5-(furan-2-yl)-[1,2,4]triazolo[1,5-c]pyrimidin-7-yl]cyclopropanecarboxamide] are 10 to 100 nM and < 10 nM.
The corresponding values for `Cc1nc2c(-c3ccccc3)nc(N)c(Cl)n2n1` [Compound 176, 5-chloro-2-methyl-8-phenyl-[1,2,4]triazolo[1,5-a]pyrazin-6-amine] are < 10 nM and < 10 nM.
As to `Cc1ccc(-c2nc(NC(=O)C3CC3)cn3ccnc23)o1` [Compound 192, N-[8-(5-methylfuran-2-yl)imidazo[1,2-a]pyrazin-6-yl]cyclopropanecarboxamide], the IC50 in assay [1] and in assay [2] was 10 to 100 nM each time.
With `Cc1nc2c(Cl)c(N)nc(-c3ccc(Cl)cc3)n2n1` [Compound 77, 8-chloro-5-(4-chlorophenyl)-2-methyl-[1,2,4]triazolo[1,5-c]pyrimidin-7-amine], the IC50 in assay [1] and in assay [2] was 10 to 100 nM in each case.
As to `Cc1nc2c(Cl)c(N)nc(-c3ccccc3)n2n1` [Compound 33, 8-chloro-2-methyl-5-phenyl-[1,2,4]triazolo[1,5-c]pyrimidin-7-amine], the IC50 in assay [1] was 10 to 100 nM; in assay [2] it was < 10 nM.
For `Cc1cn2cc(NS(C)(=O)=O)nc(-c3ccco3)c2n1` [Compound 224, N-[8-(furan-2-yl)-2-methylimidazo[1,2-a]pyrazin-6-yl]methanesulfonamide], in that order: > 1000 nM and 100 to 1000 nM.
The corresponding values for `Cc1nc2cc(NC(=O)C3CC3)nc(-c3cccc(F)c3)n2n1` [Compound 131, N-[5-(3-fluorophenyl)-2-methyl-[1,2,4]triazolo[1,5-c]pyrimidin-7-yl]cyclopropanecarboxamide] are 10 to 100 nM and < 10 nM.
For `Cc1cn2cc(NC(=O)C(F)F)nc(-c3ccco3)c2n1` [Compound 221, 2,2-difluoro-N-[8-(furan-2-yl)-2-methylimidazo[1,2-a]pyrazin-6-yl]acetamide], in that order: 10 to 100 nM and < 10 nM.
On to `Cc1nc2cc(N)nc(-c3ccc(S(=O)(=O)N(C)C)cc3)n2n1` [Compound 119, 4-(7-amino-2-methyl-[1,2,4]triazolo[1,5-c]pyrimidin-5-yl)-N,N-dimethylbenzenesulfonamide], for which the IC50 in assay [1] and in assay [2] was > 1000 nM each time.
Consider `Cc1ccc(-c2nc(NC(=O)C3CC3)cc3nc(C(C)C)nn23)o1` [Compound 12, N-[5-(5-methylfuran-2-yl)-2-propan-2-yl-[1,2,4]triazolo[1,5-c]pyrimidin-7-yl]cyclopropanecarboxamide], for which the 50% inhibitory concentration (IC50) in assay [1] and in assay [2] was < 10 nM throughout.
In the case of `Cc1nc2c(Cl)c(N)nc(-c3cccc(Cl)c3)n2n1` [Compound 78, 8-chloro-5-(3-chlorophenyl)-2-methyl-[1,2,4]triazolo[1,5-c]pyrimidin-7-amine], the IC50 in assay [1] was 10 to 100 nM; in assay [2], < 10 nM.
The corresponding values for `Cc1nc2cc(N)nc(-c3cccc(F)c3)n2n1` [Compound 142, 5-(3-fluorophenyl)-2-methyl-[1,2,4]triazolo[1,5-c]pyrimidin-7-amine] are 100 to 1000 nM and 10 to 100 nM.
For `COc1ccc(-c2nc(NC(=O)C3CC3)cc3nc(C)nn23)cc1` [Compound 111, N-[5-(4-methoxyphenyl)-2-methyl-[1,2,4]triazolo[1,5-c]pyrimidin-7-yl]cyclopropanecarboxamide], in that order: 10 to 100 nM and 10 to 100 nM.
`Cc1nc2cc(N)nc(-c3ccc(C)o3)n2n1` [Compound 1, 2-Methyl-5-(5-methylfuran-2-yl)-[1,2,4]triazolo[1,5-c]pyrimidin-7-amine]: the figures for the IC50 in assay [1] and in assay [2] were 10 to 100 nM and < 10 nM, respectively.
For the compound `Cc1cn2cc(NC(=O)C3CC3)nc(-c3ccco3)c2n1` [Compound 208, N-[8-(furan-2-yl)-2-methylimidazo[1,2-a]pyrazin-6-yl]cyclopropanecarboxamide], the IC50 in assay [1] was 10 to 100 nM; in assay [2], < 10 nM.
For the compound `Cc1nc2c(C)c(N)nc(-c3ccc(C)o3)n2n1` [Compound 22, 2,8-dimethyl-5-(5-methylfuran-2-yl)-[1,2,4]triazolo[1,5-c]pyrimidin-7-amine], the IC50 in assay [1] is 10 to 100 nM; in assay [2], < 10 nM.
